According to patent publication US11529361B2, “Halogenated salicylanilides for treating Clostridium infections” (UNION therapeutics A/S, priority 2015, dated 2022):
In brackets after ≈: the same amount, converted by molar mass. Like-named read-outs stand apart in the source and are kept apart here.

Assays:
[1] = test system: C. difficile clinical isolates; test: MIC determination by microbroth dilution per CLSI guideline (Example 1); assay type: cell-based, Clostridium difficile; conditions: Clostridioides difficile
[2] = test system: 24 clinical isolate strains of C. difficile; test: Additional MIC determinations, antibacterial activity by OD600 (Example 3); assay type: cell-based, Clostridium difficile
rats = conditions: p.o.; cited from earlier work
[3] = test system: Clostridium difficile 7-6011209; assay type: cell-based
C. difficile = conditions: published data (footnote a); cited from earlier work
[4] = test system: Clostridium difficile infection (CDAD); conditions: phase III clinical trials, versus vancomycin; cited from earlier work
[5] = Table 3, strain 7-6011209, read-out: C. difficile Strain 7-6011209 MIC
[6] = Table 3, strain 12055, read-out: C. difficile Strain 12055 MIC

Row | SMILES | MIC ([2]; strain 7-5085357 (ST028)) [µg/mL] | MIC ([2]; strain 7-6011209 (ST002)) [µg/mL] | MIC ([2]; strain 7-6778909 (ST016)) [µg/mL] | MIC ([2]; strain 7-6854508 (ST013)) [µg/mL] | MIC ([2]; strain 7-6870430 (ST001)) [µg/mL] | MIC ([2]; strain 7-7104022 (ST103)) [µg/mL] | MIC ([2]; strain 7-7116411 (ST005)) [µg/mL] | MIC ([2]; strain 7-7124449 (ST009)) [µg/mL] | MIC ([2]; strain 7-7149204 (ST006)) [µg/mL] | MIC ([2]; strain 7-7150288 (ST003)) [µg/mL] | MIC ([2]; strain 7-7150318 (ST059)) [µg/mL] | MIC ([2]; strain 7-7150628 (ST034)) [µg/mL] | MIC ([2]; strain 7-7150997 (ST049)) [µg/mL] | MIC ([2]; strain 7-7154992 (ST139)) [µg/mL] | MIC ([2]; strain 7-7200552 (ST017)) [µg/mL] | MIC ([2]; strain 12055) [µg/mL] | MIC ([2]; strain 12060) [µg/mL] | MIC ([2]; strain 12061) [µg/mL] | MIC ([2]; strain 12062) [µg/mL] | MIC ([2]; strain 12063) [µg/mL] | further results
1 | CC(=O)Oc1c(I)cc(I)cc1C(=O)Nc1ccc(Cl)cc1 [Clioxanide] | < 0.008 | < 0.008 | < 0.008 | < 0.008 | < 0.008 | < 0.008 | 0.125 (≈ 0.231 µM) | < 0.008 | < 0.008 | < 0.008 | < 0.008 | < 0.008 | < 0.008 | < 0.008 | < 0.008 | < 0.008 | < 0.008 | < 0.008 | < 0.008 | < 0.008 | MIC [1, 5]: 0.031 µg/mL (≈ 0.0572 µM); MIC [1, 6]: < 0.08 µg/mL; MIC ([2]; strain 7-7363761 (ST008)): < 0.008 µg/mL; MIC ([2]; strain 12064): < 0.008 µg/mL; MIC ([2]; strain 12065): < 0.008 µg/mL; MIC ([2]; strain 12066): 0.063 µg/mL (≈ 0.116 µM)
2 | O=C(Nc1ccc(Br)cc1)c1cc(Br)cc(Br)c1O [Tribromsalan, 3,4′,5-tribromosalicylanilide] | 0.016 (≈ 0.0356 µM) | < 0.008 | < 0.008 | 0.031 (≈ 0.0689 µM) | 0.016 (≈ 0.0356 µM) | 1 (≈ 2.22 µM) | < 0.008 | 0.063 (≈ 0.14 µM) | < 0.008 | < 0.008 | < 0.008 | 0.031 (≈ 0.0689 µM) | 0.16 (≈ 0.356 µM) | 0.063 (≈ 0.14 µM) | 0.25 (≈ 0.556 µM) | 0.016 (≈ 0.0356 µM) | 0.063 (≈ 0.14 µM) | 0.016 (≈ 0.0356 µM) | < 0.008 | 0.016 (≈ 0.0356 µM) | MIC ([1]; read-out: C. difficile Strain 7-6011209 MIC): 0.125 µg/mL (≈ 0.278 µM); MIC ([1]; read-out: C. difficile Strain 12055 MIC): 0.25 µg/mL (≈ 0.556 µM); MIC ([2]; strain 12064): < 0.008 µg/mL; MIC ([2]; strain 12065): 0.016 µg/mL (≈ 0.0356 µM); MIC ([2]; strain 12066): 0.031 µg/mL (≈ 0.0689 µM)
3 | Cc1cc(C(C#N)c2ccc(Cl)cc2)c(Cl)cc1NC(=O)c1cc(I)cc(I)c1O (stereo not shown) [Closantel] | 0.016 (≈ 0.0241 µM) | 0.016 (≈ 0.0241 µM) | 0.031 (≈ 0.0468 µM) | 0.25 (≈ 0.377 µM) | 0.031 (≈ 0.0468 µM) | 0.25 (≈ 0.377 µM) | 0.25 (≈ 0.377 µM) | 0.25 (≈ 0.377 µM) | 0.31 (≈ 0.468 µM) | 0.031 (≈ 0.0468 µM) | 0.63 (≈ 0.95 µM) | 0.063 (≈ 0.095 µM) | 0.016 (≈ 0.0241 µM) | 0.063 (≈ 0.095 µM) | 0.5 (≈ 0.754 µM) | 0.063 (≈ 0.095 µM) | 0.125 (≈ 0.189 µM) | 0.063 (≈ 0.095 µM) | 0.063 (≈ 0.095 µM) | 0.031 (≈ 0.0468 µM) | MIC [1, 5]: 0.125 µg/mL (≈ 0.189 µM); MIC [1, 6]: 0.125 µg/mL (≈ 0.189 µM); MIC ([2]; strain 12064): 0.031 µg/mL (≈ 0.0468 µM); MIC ([2]; strain 12065): 0.063 µg/mL (≈ 0.095 µM); MIC ([2]; strain 12066): 0.5 µg/mL (≈ 0.754 µM); LD50 (rats): 262 to 342 mg/kg
4 | CCc1c(Cl)c(O)c(Cl)c(O)c1C(=O)O[C@H]1[C@H](O)[C@H](OC)[C@H](OC/C2=C\C=C\C[C@H](O)/C(C)=C/[C@H](CC)[C@@H](O[C@@H]3OC(C)(C)[C@@H](OC(=O)C(C)C)[C@H](O)[C@@H]3O)/C(C)=C/C(C)=C/C[C@@H]([C@@H](C)O)OC2=O)O[C@@H]1C [Fidaxomycin] | < 0.008 | < 0.008 | < 0.008 | < 0.008 | 0.016 (≈ 0.0151 µM) | < 0.008 | 2 (≈ 1.89 µM) | < 0.008 | < 0.008 | < 0.008 | < 0.008 | < 0.008 | < 0.008 | < 0.008 | < 0.008 | < 0.008 | < 0.008 | < 0.008 | < 0.008 | < 0.008 | MIC ([2]; strain 7-7363761 (ST008)): < 0.008 µg/mL; MIC ([2]; strain 12064): < 0.008 µg/mL; MIC ([2]; strain 12065): < 0.008 µg/mL; MIC ([2]; strain 12066): < 0.008 µg/mL; formation of heat-resistant spores over time [3]: suppressed formation of spores for the first 48 hours of the study; Highest MIC observed (C. difficile): 1 ^ μg/mL; MIC90 (C. difficile): 0.5^a μg/mL; clinical cure of CDAD [4]: non-inferior to vancomycin; preventing recurrence of CDAD [4]: superior to vancomycin
